Experiments:
[1] = Biodistribution and excretion in tumor-bearing ACI rats; type: in vivo, rat; details: for gadolinium obtained in the faeces / gadolinium obtained in the urine: 24 h after injecting
Protocol: Animal models. For in vivo tumor studies 2×10^6 MH3924A tumor cells were injected subcutaneously into the right thigh of male ACI rats (Charles River, Sulzfeld, Germany) weighing 220 to 260 g. All animal experiments were performed in compliance with the German Animal Protection Laws (Permission 35-9185.81/G-7-03, Reg.-Praesidium, Karlsruhe, Germany).
Biodistribution and excretion data. At 14 days after tumor inoculation, when tumors had reached a diameter of ca. 5-6 mm, the biodistribution experiments were initiated. Each animal (210-250 g) was given an intravenous tail-vein injection of […] Magnevist® (Schering, Berlin, Germany) or […] of Gd-5.1. or Gd-6.1. 1 h and 24 hs post-injection (p.i.), the animals were weighed, sacrificed by cervical dislocation and dissected. Organs or tissues were blotted dry and weighed. Samples containing 100-500 mg of the tumor or organs were digested with concentrated HNO3 (Superselect; Merck, Darmstadt, Germany) and H2O2 under microwave heating with a Mars 5 apparatus (CEM GmbH, Kamp-Lintfort, Germany). To each sample 100 μL of an aqueous solution of rhodium chloride (1 μg/mL) were added so that Rh-103 could be used as an internal quantification standard. Gd-160 measurements were performed with the ICP-MS instrument mentioned above. The gadolinium concentrations were determined using standard curves created prior to tissue analyses. The results were expressed as % ID/g tissue. Urine and faeces were gathered in order to measure the excreted amount of Gd(III).

MH3924A cells = assay: Subcellular distribution; type: cell-based, rat; details: 100 μM, 24 h, 37° C.
Protocol: Subcellular distribution. 5×10^6 MH3924A cells were grown in 25 cm^2 culture flasks (BD Biosciences, Bedford, USA) for 24 h in 10 mL of the standard culture medium. Cells were then incubated for an additional 24 h with 100 μM Gd-5.1. Afterwards the medium was removed, cells were trypsinated. Then the organelles were isolated with the Subcellular Proteome Extraction Kit ProteoExtract® (Merck, Darmstadt, Germany) according to the instructions of the manufacturer. Four fractions were obtained: Cytosol, membrane organelles (mainly mitochondria), nucleus and cytoskeleton (with associated endosomes and lysosomes). The gadolinium content for each fraction was determined by ICP-MS as described below.
ICP-MS. Samples containing the above mentioned number of harvested cells were digested with 50% concentrated HNO3 (Superselect; Merck, Darmstadt, Germany) under microwave heating with a Mars 5 apparatus (CEM GmbH, Kamp-Lintfort, Germany). To each sample 100 μL of an aqueous solution of rhodium chloride (1 μg/mL) were added so that Rh-103 could be used as an internal quantification standard. Gd-160 measurements were performed with the ICP-MS instrument mentioned above. The gadolinium concentrations were determined using standard curves created prior to cell analyses. For each uptake incubation condition triplicate cell samples were analyzed, and Gd content for each sample was recorded as the mean of two MS determinations.

human melanocytes = assay: Intracellular uptake of gadolinium complexes (ICP-MS); type: cell-based; details: 24-h incubation (FIG. 2C)
Protocol: Cell culture. B16 melanoma cells (mouse) and MH3924A Morris hepatoma cells (rat) were obtained from the German Cancer Research Center (DKFZ) tumor bank and grown at 37° C. as stock cultures in RPMI 1640 supplemented with 10% fetal calf serum and 1% glutamine as standard medium under a 5% CO2 atmosphere (all components: Pan Biotech GmbH, Aidenbach, Germany). For contrast agent uptake studies 10^6 cells were inoculated into 25 cm^2 culture flasks (BD Biosciences, Bedford, USA) and grown for 24 h in 10 mL of the standard culture medium. […] Afterwards the medium was removed, cells were trypsinated, washed twice, resuspended in culture medium and counted (typical yields: 3.5-6 million cells). […] After digestion the cells were washed twice with PBS, resuspended in culture medium and counted (typical yields: 6×10^5 cells per tube). The intracellular gadolinium content was determined by ICP-MS as described below.
ICP-MS. […] To each sample 100 μL of an aqueous solution of rhodium chloride (1 μg/mL) were added so that Rh-103 could be used as an internal quantification standard. […] The gadolinium concentrations were determined using standard curves created prior to cell analyses. For each uptake incubation condition triplicate cell samples were analyzed, and Gd content for each sample was recorded as the mean of two MS determinations.

[2] = 1 h post i.v. injection, one ACI rat, scaled to Gd dose of 100 μmol/kg
[3] = 24 h post i.v. injection, one ACI rat
[4] = 24 h post i.v. injection, one ACI rat, scaled to Gd dose of 100 μmol/kg

SMILES | Gd concentration, Blood [1, 2] [nmol/g] | Gd concentration, Bone (femur) [1, 2] [nmol/g] | Gd concentration, Bone Marrow (femur) [1, 2] [nmol/g] | Gd concentration, Kidney (+urine) [1, 2] [nmol/g] | Gd concentration, Liver [1, 2] [nmol/g] | Gd concentration, Lung [1, 2] [nmol/g] | Gd concentration, Small Intestine [1, 2] [nmol/g] | Gd concentration, Tumor (MH3924A) [1, 2] [nmol/g] | gadolinium obtained in the faeces ([1]; ACI rat) | gadolinium obtained in the urine ([1]; ACI rat) [%] | Excretion as % of total dose [1, 3] [%] | Gd concentration, Blood [1, 4] [nmol/g] | Gd concentration, Bone (femur) [1, 4] [nmol/g] | Gd concentration, Bone Marrow (femur) [1, 4] [nmol/g] | Gd concentration, Faeces [1, 4] [nmol/g] | Gd concentration, Kidney (+urine) [1, 4] [nmol/g] | Gd concentration, Liver [1, 4] [nmol/g] | Gd concentration, Lung [1, 4] [nmol/g] | Gd concentration, Small Intestine [1, 4] [nmol/g] | Gd concentration, Tumor (MH3924A) [1, 4] [nmol/g] | also measured
NCCN(CCN)C(=O)CN(CCN(CCN(CC(=O)[O-])CC(=O)N(CCN)CCN)CC(=O)[O-])CC(=O)[O-].[Gd+3] [Gd-5.1] | 7.8 | 2.2 | 0.8 | 120.3 | 4.2 | 12.7 | 18.9 | 5.5 | about 1% | 98 | 98 | 0.1 | 0.9 | 1.7 | 16.6 | 40.9 | 2.0 | 24.2 | 0.4 | 0.6 | Gd concentration, Brain [1, 2]: 0.5 nmol/g; Gd concentration, Muscle (femur) [1, 2]: 1.6 nmol/g; Gd concentration, Spleen [1, 2]: 4.7 nmol/g; Gd concentration, Urine (cumulative) [1, 2]: 2116.7 nmol/g; Gd concentration, Urine (cumulative) [1, 4]: 537.2 nmol/g; agent still present in the tumor ([1]; 24 h post injection, MH3924A tumor, ACI rat): about 0.020 fmol/cell; preferential tissue binding (biodistribution) ([1]; ACI rat bearing MH3924A tumor, i.v.): binds preferentially to lung tissue and parts of the excretory system e.g. small intestine and kidneys; subcellular concentration, cytoplasma (MH3924A cells): 0.026 fmol/cell; subcellular concentration, cytoskeleton fraction (MH3924A cells): 0.065 fmol/cell; subcellular concentration, nucleus (MH3924A cells): 0.015 fmol/cell
NCCCCN(CCCN)C(=O)CN(CCN(CCN(CC(=O)[O-])CC(=O)N(CCCN)CCCCN)CC(=O)[O-])CC(=O)[O-].[Gd+3] [Gd-6.1] | 4.8 | 3.3 | 0.9 | 141.6 | 6.6 | 20.2 | 4.0 | 7.2 | about 1% | 98 | 94 | 0.1 | 1.0 | 2.3 | 41.4 | 62.3 | 5.5 | 5.9 | 0.1 | 0.8 | Gd concentration, Urine (cumulative) [1, 4]: 650.9 nmol/g; factor of higher uptake into B16 melanoma versus human melanocytes (human melanocytes): ~2

From patent publication US20070202047A1, “Polyamine-substituted ligands for use as contrast agents” (priority 2006, published 2007)
